Tests used:
[1] = tested on: SN12C; assay: NCI-60 SRB screen; format: cell-based, human; details: Homo sapiens, SN12C; SN 12 C; single dose 10^−5 M; read-out: Growth inhibition (%)
[2] = tested on: COLO 205; assay: NCI-60 SRB screen; format: cell-based, human; details: Homo sapiens; COLO 205; single dose 10^−5 M; read-out: Growth inhibition (%)
[3] = tested on: K-562; assay: NCI-60 SRB screen; format: cell-based, human; details: Homo sapiens, K562; K-562; single dose 10^−5 M; read-out: Growth inhibition (%)
[4] = tested on: HOP-62; assay: NCI-60 SRB screen; format: cell-based, human; details: Homo sapiens; HOP-62; single dose 10^−5 M; read-out: Growth inhibition (%)
[5] = tested on: A549/ATCC; assay: NCI-60 SRB screen; format: cell-based, human; details: Homo sapiens, single dose 10^−5 M, read-out: Growth inhibition (%)
[6] = tested on: TK-10; assay: NCI-60 SRB screen; format: cell-based, human; details: Homo sapiens; TK-10; single dose 10^−5 M; read-out: Growth inhibition (%)
[7] = tested on: UO-31; assay: NCI-60 SRB screen; format: cell-based, human; details: Homo sapiens; UO-31; single dose 10^−5 M; read-out: Growth inhibition (%)
[8] = tested on: SF-268; assay: NCI-60 SRB screen; format: cell-based, human; details: Homo sapiens; SF-268; single dose 10^−5 M; read-out: Growth inhibition (%)
[9] = tested on: MALME-3M; assay: NCI-60 SRB screen; format: cell-based, human; details: Homo sapiens, single dose 10^−5 M, read-out: Growth inhibition (%)
[10] = tested on: HCT-15; assay: NCI-60 SRB screen; format: cell-based, human; details: Homo sapiens; HCT-15; single dose 10^−5 M; read-out: Growth inhibition (%)
[11] = tested on: HCC-2998; assay: NCI-60 SRB screen; format: cell-based, human; details: Homo sapiens; HCC-2998; single dose 10^−5 M; read-out: Growth inhibition (%)
[12] = tested on: HCT-116; assay: NCI-60 SRB screen; format: cell-based, human; details: Homo sapiens; HCT-116; single dose 10^−5 M; read-out: Growth inhibition (%)
[13] = tested on: MDA-MB-435; assay: NCI-60 SRB screen; format: cell-based; details: Homo sapiens, MDA-MB-435, read-out: Growth inhibition (%)
[14] = tested on: MOLT-4; assay: NCI-60 SRB screen; format: cell-based; details: Homo sapiens; MOLT-4; single dose 10^−5 M; read-out: Growth inhibition (%)
[15] = tested on: SF-295; assay: NCI-60 SRB screen; format: cell-based, human; details: Homo sapiens; SF-295; single dose 10^−5 M; read-out: Growth inhibition (%)
[16] = tested on: NCI-H322M; assay: NCI-60 SRB screen; format: cell-based, human; details: Homo sapiens, single dose 10^−5 M, read-out: Growth inhibition (%)
[17] = tested on: NCI-H460; assay: NCI-60 SRB screen; format: cell-based, human; details: Homo sapiens; NCI-H460; single dose 10^−5 M; read-out: Growth inhibition (%)
[18] = tested on: ACHN; assay: NCI-60 SRB screen; format: cell-based; details: Homo sapiens, single dose 10^−5 M, read-out: Growth inhibition (%)
[19] = tested on: UACC-62; assay: NCI-60 SRB screen; format: cell-based, human; details: Homo sapiens; UACC-62; single dose 10^−5 M; read-out: Growth inhibition (%)
[20] = tested on: NCI-H23; assay: NCI-60 SRB screen; format: cell-based, human; details: Homo sapiens; NCI-H23; single dose 10^−5 M; read-out: Growth inhibition (%)
[21] = tested on: IGROV1; assay: NCI-60 SRB screen; format: cell-based, human; details: Homo sapiens, IGROV-1; IGROV1; single dose 10^−5 M; read-out: Growth inhibition (%)
[22] = tested on: SK-MEL-2; assay: NCI-60 SRB screen; format: cell-based, human; details: Homo sapiens; SK-MEL-2; single dose 10^−5 M; read-out: Growth inhibition (%)
[23] = tested on: NCI-H522; assay: NCI-60 SRB screen; format: cell-based, human; details: Homo sapiens; NCI-H522; single dose 10^−5 M; read-out: Growth inhibition (%)
[24] = tested on: NCI-H226; assay: NCI-60 SRB screen; format: cell-based, human; details: Homo sapiens; NCI-H226; single dose 10^−5 M; read-out: Growth inhibition (%)
[25] = tested on: EKVX; assay: NCI-60 SRB screen; format: cell-based, human; details: Homo sapiens, single dose 10^−5 M, read-out: Growth inhibition (%)
[26] = tested on: SR; assay: NCI-60 SRB screen; format: cell-based; details: Homo sapiens, single dose 10^−5 M, read-out: Growth inhibition (%)
[27] = tested on: SW-620; assay: NCI-60 SRB screen; format: cell-based; details: Homo sapiens; SW-620; single dose 10^−5 M; read-out: Growth inhibition (%)
[28] = tested on: NCI/ADR-RES; assay: NCI-60 SRB screen; format: cell-based, human; details: Homo sapiens, single dose 10^−5 M, read-out: Growth inhibition (%)
[29] = tested on: 786-0; assay: NCI-60 SRB screen; format: cell-based; details: Homo sapiens; 786-0; single dose 10^−5 M; read-out: Growth inhibition (%)
[30] = tested on: panel of 60 cancer cell lines; assay: NCI-60 SRB screen, mean or range over the panel; format: cell-based, human; details: Homo sapiens; mean over the cell lines; single dose 10^−5 M; read-out: Mean growth inhibition (%)
[31] = tested on: SK-MEL-28; assay: NCI-60 SRB screen; format: cell-based; details: Homo sapiens; SK-MEL-28; single dose 10^−5 M; read-out: Growth inhibition (%)
[32] = tested on: UACC-257; assay: NCI-60 SRB screen; format: cell-based, human; details: Homo sapiens, UACC-257; UACC-275 (so in the source); single dose 10^−5 M; read-out: Growth inhibition (%)
[33] = tested on: SK-MEL-5; assay: NCI-60 SRB screen; format: cell-based, human; details: Homo sapiens; SK-MEL-5; single dose 10^−5 M; read-out: Growth inhibition (%)
[34] = tested on: KM12; assay: NCI-60 SRB screen; format: cell-based, human; details: Homo sapiens; KM12; single dose 10^−5 M; read-out: Growth inhibition (%)
[35] = tested on: LOX IMVI; assay: NCI-60 SRB screen; format: cell-based, human; details: Homo sapiens, single dose 10^−5 M, read-out: Growth inhibition (%)
[36] = tested on: CCRF-CEM; assay: NCI-60 SRB screen; format: cell-based; details: Homo sapiens, single dose 10^−5 M, read-out: Growth inhibition (%)
[37] = tested on: CAKI-1; assay: NCI-60 SRB screen; format: cell-based, human; details: Homo sapiens; CAKI-1; single dose 10^−5 M; read-out: Growth inhibition (%)
[38] = tested on: HL-60(TB); assay: NCI-60 SRB screen; format: cell-based, human; details: Homo sapiens; HL-60 (TB); single dose 10^−5 M; read-out: Growth inhibition (%)
[39] = tested on: M14; assay: NCI-60 SRB screen; format: cell-based, human; details: Homo sapiens; M14; single dose 10^−5 M; read-out: Growth inhibition (%)
[40] = tested on: HT-29; assay: NCI-60 SRB screen; format: cell-based; details: Homo sapiens; HT-29; single dose 10^−5 M; read-out: Growth inhibition (%)
[41] = tested on: HOP-92; assay: NCI-60 SRB screen; format: cell-based, human; details: Homo sapiens; HOP-92; single dose 10^−5 M; read-out: Growth inhibition (%)
[42] = tested on: RXF 393; assay: NCI-60 SRB screen; format: cell-based, human; details: Homo sapiens; RXF 393; single dose 10^−5 M; read-out: Growth inhibition (%)
[43] = tested on: SK-OV-3; assay: NCI-60 SRB screen; format: cell-based, human; details: Homo sapiens; SK-OV-3; single dose 10^−5 M; read-out: Growth inhibition (%)
[44] = tested on: OVCAR-3; assay: NCI-60 SRB screen; format: cell-based, human; details: Homo sapiens; OVCAR-3; single dose 10^−5 M; read-out: Growth inhibition (%)
[45] = tested on: OVCAR-4; assay: NCI-60 SRB screen; format: cell-based, human; details: Homo sapiens; OVCAR-4; single dose 10^−5 M; read-out: Growth inhibition (%)

## O=C1NC(c2ccccc2[N+](=O)[O-])c2sc3c(F)cccc3c2C1Cl (stereo not drawn) [Compound 4c, 4-Chloro-8-fluoro-1-(2-nitrophenyl)-1,2-dihydro[1]benzothieno[2,3-c] pyridine-3(4H)-one]
[1]
  inhibition at 10 µM: 4.76%
[2]
  inhibition at 10 µM: -21.6%
[3]
  inhibition at 10 µM: 33.5%
[4]
  inhibition at 10 µM: 3.32%
[5]
  inhibition at 10 µM: 3.15%
[6]
  inhibition at 10 µM: -52%
[7]
  inhibition at 10 µM: 33.2%
[8]
  inhibition at 10 µM: 10.5%
[9]
  inhibition at 10 µM: 9.46%
[10]
  inhibition at 10 µM: -1.51%
[11]
  inhibition at 10 µM: -27.4%
[12]
  inhibition at 10 µM: 11.4%
[13]
  inhibition at 10 µM: -7.17%
[14]
  inhibition at 10 µM: 11.8%
[15]
  inhibition at 10 µM: -7.26%
[16]
  inhibition at 10 µM: -4.23%
[17]
  inhibition at 10 µM: 17.2%
[18]
  inhibition at 10 µM: -4.45%
[19]
  inhibition at 10 µM: 20.8%
[20]
  inhibition at 10 µM: 6.95%
[21]
  inhibition at 10 µM: 33%
[22]
  inhibition at 10 µM: -16.7%
[23]
  inhibition at 10 µM: 7.95%
[24]
  inhibition at 10 µM: 18.5%
[25]
  inhibition at 10 µM: 11.8%
[26]
  inhibition at 10 µM: 0.2%
[27]
  inhibition at 10 µM: 2.43%
[28]
  inhibition at 10 µM: -1.98%
[29]
  inhibition at 10 µM: -16.9%
[30]
  inhibition at 10 µM: 3%
[31]
  inhibition at 10 µM: 8.45%
[32]
  inhibition at 10 µM: -0.18%
[33]
  inhibition at 10 µM: 8.45%
[34]
  inhibition at 10 µM: -0.66%
[35]
  inhibition at 10 µM: 8.72%
[36]
  inhibition at 10 µM: -0.04%
[37]
  inhibition at 10 µM: 12.4%
[38]
  inhibition at 10 µM: -5.53%
[39]
  inhibition at 10 µM: 1.7%
[40]
  inhibition at 10 µM: -9.93%
[41]
  inhibition at 10 µM: -11.2%
[42]
  inhibition at 10 µM: -17.3%
[43]
  inhibition at 10 µM: -9.85%
[44]
  inhibition at 10 µM: 7.25%
[45]
  inhibition at 10 µM: 11.1%

## O=C1NC(c2cccc([N+](=O)[O-])c2)c2sc3c(F)cccc3c2C1Cl (stereo not drawn) [Compound 4d, 4-Chloro-8-fluoro-1-(3-nitrophenyl)-1,2-dihydro[1]benzothieno[2,3-c] pyridine-3(4H)-one]
[1]
  inhibition at 10 µM: 2.95%
[2]
  inhibition at 10 µM: -17.2%
[3]
  inhibition at 10 µM: 23%
[4]
  inhibition at 10 µM: 1.22%
[5]
  inhibition at 10 µM: -2.89%
[6]
  inhibition at 10 µM: -40.7%
[7]
  inhibition at 10 µM: 34.7%
[8]
  inhibition at 10 µM: 6.94%
[9]
  inhibition at 10 µM: 4.62%
[10]
  inhibition at 10 µM: 1.31%
[11]
  inhibition at 10 µM: -15.9%
[12]
  inhibition at 10 µM: 9.54%
[13]
  inhibition at 10 µM: -7.63%
[14]
  inhibition at 10 µM: 9.18%
[15]
  inhibition at 10 µM: -3.1%
[16]
  inhibition at 10 µM: -0.93%
[17]
  inhibition at 10 µM: 1.43%
[18]
  inhibition at 10 µM: 6.28%
[19]
  inhibition at 10 µM: 10.4%
[20]
  inhibition at 10 µM: -1.19%
[21]
  inhibition at 10 µM: 22.8%
[22]
  inhibition at 10 µM: -26.1%
[23]
  inhibition at 10 µM: 8.55%
[24]
  inhibition at 10 µM: 5.26%
[25]
  inhibition at 10 µM: 0.87%
[26]
  inhibition at 10 µM: 11.4%
[27]
  inhibition at 10 µM: 3.43%
[28]
  inhibition at 10 µM: -8.05%
[29]
  inhibition at 10 µM: -11.2%
[30]
  inhibition at 10 µM: 0.15%
[31]
  inhibition at 10 µM: -10.5%
[32]
  inhibition at 10 µM: -15.8%
[33]
  inhibition at 10 µM: 4.05%
[34]
  inhibition at 10 µM: -5.21%
[35]
  inhibition at 10 µM: 5.22%
[36]
  inhibition at 10 µM: 1.99%
[37]
  inhibition at 10 µM: 27.4%
[38]
  inhibition at 10 µM: -16.8%
[39]
  inhibition at 10 µM: -0.99%
[40]
  inhibition at 10 µM: 2.3%
[41]
  inhibition at 10 µM: 5.89%
[42]
  inhibition at 10 µM: -18.1%
[43]
  inhibition at 10 µM: -10.2%
[44]
  inhibition at 10 µM: -4.91%
[45]
  inhibition at 10 µM: 1.96%

Source: PMC8330742, “New benzothieno[2,3-c]pyridines as non-steroidal CYP17 inhibitors: design, synthesis, anticancer screening, apoptosis induction, and in silico ADME profile studies” (Journal of Enzyme Inhibition and Medicinal Chemistry, 2021)
